The values below come from US20120016009A1, “Optimized Methods For Delivery Of DSRNA Targeting The PCSK9 Gene” (priority 2008, published 2012).

This series deals with PCSK9 mRNA. The experiment in a line: PCSK9 siRNA screening in HepG2 cells (lipofectamine 2000 transfection, PCSK9 mRNA by Quantigene, normalized to GAP-DH). As to conditions: for Mean percent remaining mRNA transcript at siRNA concentration/in cell type 30 nM/HepG2: 30 nM siRNA; for Mean percent remaining mRNA transcript at siRNA concentration/in cell type 3 nM/HepG2: 3 nM siRNA; for Mean percent remaining mRNA transcript at siRNA concentration/in cell type 100 nM/HepG2: 100 nM siRNA. Type of series: cell-based, human. In outline:
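HepG2 cells, grown in MEM with 10% fetal calf serum, antibiotics, non-essential amino acids and sodium pyruvate at 37° C. and 5% CO2, were plated at 2.0×10^4 cells/well in 96-well plates and transfected directly with siRNA using lipofectamine 2000. After 24 hours, cells were lysed and PCSK9 mRNA was measured by Quantigene and normalized to GAP-DH mRNA.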

In the oligonucleotide strings, read from the 5' end, every base follows the letter of its sugar. An asterisk marks phosphorothioate; unmarked linkages are phosphodiester. Other units and linkages are bracketed, terminal groups are in braces. A string of capitals states the bases alone. d = 2'-deoxy (DNA); m = 2'-O-methyl; r = 2'-OH (RNA)

Regarding “AD-9621: PCSK9 siRNA (sense rUrCrUrGrGrArUrGrGrCrArUrCrUrArGrCrCrAdT*dT; antisense rUrGrGrCrUrArGrArUrGrCrCrArUrCrCrArGrAdT*dT)”, the “Mean percent remaining mRNA transcript at siRNA concentration/in cell type 30 nM/HepG2” value worked out at 77%.

“AD-9624: PCSK9 siRNA (sense rCrGrUrCrArGrCrUrCrCrArGrGrCrGrGrUrCrCdT*dT; antisense rGrGrArCrCrGrCrCrUrGrGrArGrCrUrGrArCrGdT*dT)”: the “Mean percent remaining mRNA transcript at siRNA concentration/in cell type 30 nM/HepG2” value came to 94%. For “AD-9603: PCSK9 siRNA (sense rUrUrUrCrUrGrGrArUrGrGrCrArUrCrUrArGrCdT*dT; antisense rGrCrUrArGrArUrGrCrCrArUrCrCrArGrArArAdT*dT)”, the “Mean percent remaining mRNA transcript at siRNA concentration/in cell type 30 nM/HepG2” value was found to be 123%.

As for “AD-9704: PCSK9 siRNA (sense mCrAmUmUmUrAmUmCmUmUmUmUrGrGrGmUmCmUrGdT*dT; antisense mCrArGrArCrCmCrArArArArGrAmUrArArArUrGdT*dT)”, the “Mean percent remaining mRNA transcript at siRNA concentration/in cell type 30 nM/HepG2” value came to 111%. Regarding “AD-9529: PCSK9 siRNA (sense rGrGrGrArUrArCrCrUrCrArCrCrArArGrArUrCdT*dT; antisense rGrArUrCrUrUrGrGrUrGrArGrGrUrArUrCrCrCdT*dT)”, the “Mean percent remaining mRNA transcript at siRNA concentration/in cell type 30 nM/HepG2” value is reported as 60%.

For “AD-9752: PCSK9 siRNA (sense mUrGrArArGrAmUrAmUmUmUrAmUmUmCmUrGrGrGdT*dT; antisense rCrCmCrArGrArAmUrArArAmUrArUrCrUrUmCrAdT*dT)”, the “Mean percent remaining mRNA transcript at siRNA concentration/in cell type 3 nM/HepG2” value was 33% and the “Mean percent remaining mRNA transcript at siRNA concentration/in cell type 30 nM/HepG2” value turned out to be 28%. Turning to “AD-9564: PCSK9 siRNA (sense rUrCrArUrUrGrGrUrGrCrCrUrCrCrArGrCrGrAdT*dT; antisense rUrCrGrCrUrGrGrArGrGrCrArCrCrArArUrGrAdT*dT)”, the “Mean percent remaining mRNA transcript at siRNA concentration/in cell type 30 nM/HepG2” value is on record as 120%. On the same count and under the same terms, the result for “AD-9656: PCSK9 siRNA (sense rAmCmCrGrGrGmCrGrGrAmUrGrArAmUrAmCmCrAdT*dT; antisense rUrGrGmUrArUrUmCrArUrCrCrGrCrCrCrGrGrUdT*dT)” reads 77%. Regarding “AD-9741: PCSK9 siRNA (sense mUmUmCmCrGrGrGrAmCrGrAmUrGmCmCmUrGmCmCdT*dT; antisense rGrGmCrArGrGmCrArUrCrGrUrCrCrCrGrGrArAdT*dT)”, the “Mean percent remaining mRNA transcript at siRNA concentration/in cell type 30 nM/HepG2” value stood at 130%. For the substance “AD-9554: PCSK9 siRNA (sense rUrUrCrUrArGrArCrCrUrGrUrUrUrUrGrCrUrUdT*dT; antisense rArArGrCrArArArArCrArGrGrUrCrUrArGrArAdT*dT)”, the “Mean percent remaining mRNA transcript at siRNA concentration/in cell type 3 nM/HepG2” value turned out to be 24% and the “Mean percent remaining mRNA transcript at siRNA concentration/in cell type 30 nM/HepG2” value is 23%. For “AD-9586: PCSK9 siRNA (sense rGrArCrArUrCrArUrUrGrGrUrGrCrCrUrCrCrAdT*dT; antisense rUrGrGrArGrGrCrArCrCrArArUrGrArUrGrUrCdT*dT)”, the “Mean percent remaining mRNA transcript at siRNA concentration/in cell type 30 nM/HepG2” value was found to be 104% and the “Mean percent remaining mRNA transcript at siRNA concentration/in cell type 100 nM/HepG2” value was 81%.

As to “AD-9637: PCSK9 siRNA (sense rGrArGrGrGrCrArGrGrGrUrCrArUrGrGrUrCrAdT*dT; antisense rUrGrArCrCrArUrGrArCrCrCrUrGrCrCrCrUrCdT*dT)”, the “Mean percent remaining mRNA transcript at siRNA concentration/in cell type 30 nM/HepG2” value is given as 83% and the “Mean percent remaining mRNA transcript at siRNA concentration/in cell type 100 nM/HepG2” value was determined as 56%. Take “AD-9676: PCSK9 siRNA (sense rGrArGrGrGmUrGmUmCmUrAmCrGmCmCrAmUmUrGdT*dT; antisense mCrArArUrGrGrCrGmUrArGrAmCrArCrCrCrUrCdT*dT)”: the “Mean percent remaining mRNA transcript at siRNA concentration/in cell type 30 nM/HepG2” value is listed as 100%.

Take “AD-9670: PCSK9 siRNA (sense mUrGrArGrGrAmCmCrArGmCrGrGrGmUrAmCmUrGdT*dT; antisense mCrArGmUrArCrCrCrGrCrUrGrGrUrCrCrUmCrAdT*dT)”: the “Mean percent remaining mRNA transcript at siRNA concentration/in cell type 30 nM/HepG2” value turned out to be 67%.

Consider “AD-9611: PCSK9 siRNA (sense rUrCrCrUrArGrArCrArCrCrArGrCrArUrArCrAdT*dT; antisense rUrGrUrArUrGrCrUrGrGrUrGrUrCrUrArGrGrAdT*dT)”, for which the “Mean percent remaining mRNA transcript at siRNA concentration/in cell type 30 nM/HepG2” value is 48%. As for “AD-9763: PCSK9 siRNA (sense rGrArGrGrGmCrArGrGrGmUmCrAmUrGrGmUmCrAdT*dT; antisense rUrGrArCmCrArUrGrArCrCrCrUrGrCrCrCrUrCdT*dT)”, the “Mean percent remaining mRNA transcript at siRNA concentration/in cell type 30 nM/HepG2” value was found to be 79%.

Consider “AD-9580: PCSK9 siRNA (sense rCrCrUrGrCrGrCrGrUrGrCrUrCrArArCrUrGrCdT*dT; antisense rGrCrArGrUrUrGrArGrCrArCrGrCrGrCrArGrGdT*dT)”, for which the “Mean percent remaining mRNA transcript at siRNA concentration/in cell type 30 nM/HepG2” value is reported as 112%. The same measure, in the same setting: the result for “AD-9737: PCSK9 siRNA (sense mUmCmCmUrArGrAmCrAmCmCrArGmCrAmUrAmCrAdT*dT; antisense rUrGmUrArUrGrCrUrGrGrUrGrUrCmUrArGrGrAdT*dT)” reads 68%. Broadly, the IC50 is the concentration needed to halve the response being measured. The low end stands for higher potency, the high end for lower potency. As to “AD-9553: PCSK9 siRNA (sense rUrCrUrArGrArCrCrUrGrUrUrUrUrGrCrUrUrUdT*dT; antisense rArArArGrCrArArArArCrArGrGrUrCrUrArGrAdT*dT)”, the IC50 was found to be 0.02 nM, the “Mean percent remaining mRNA transcript at siRNA concentration/in cell type 3 nM/HepG2” value is recorded as 22% and the “Mean percent remaining mRNA transcript at siRNA concentration/in cell type 30 nM/HepG2” value was 27%. Consider “AD-9542: PCSK9 siRNA (sense rArUrCrGrArGrGrGrCrArGrGrGrUrCrArUrGrGdT*dT; antisense rCrCrArUrGrArCrCrCrUrGrCrCrCrUrCrGrArUdT*dT)”, for which the “Mean percent remaining mRNA transcript at siRNA concentration/in cell type 30 nM/HepG2” value is listed as 160%. As to “AD-9746: PCSK9 siRNA (sense mCrArGrGrArGmCmCrGrGrGrAmCrGmUmCrArGmCdT*dT; antisense rGrCrUrGrArCrGrUrCrCrCrGrGrCrUrCrCrUrGdT*dT)”, the “Mean percent remaining mRNA transcript at siRNA concentration/in cell type 30 nM/HepG2” value was 89%.

On to “AD-9632: PCSK9 siRNA (sense rCrArArCrUrUrUrGrGrCrCrGrCrUrGrUrGrUrGdT*dT; antisense rCrArCrArCrArGrCrGrGrCrCrArArArGrUrUrGdT*dT)”, for which the “Mean percent remaining mRNA transcript at siRNA concentration/in cell type 30 nM/HepG2” value was 34%. Take “AD-9654: PCSK9 siRNA (sense mCrGrGmUrAmCmCrGrGrGmCrGrGrAmUrGrArAmUdT*dT; antisense rArUrUmCrArUrCrCrGrCrCrCrGrGmUrArCrCrGdT*dT)”: the “Mean percent remaining mRNA transcript at siRNA concentration/in cell type 30 nM/HepG2” value is 107%. For the substance “AD-9541: PCSK9 siRNA (sense rGrGrUrGrArGrGrGrUrGrUrCrUrArCrGrCrCrAdT*dT; antisense rUrGrGrCrGrUrArGrArCrArCrCrCrUrCrArCrCdT*dT)”, the “Mean percent remaining mRNA transcript at siRNA concentration/in cell type 30 nM/HepG2” value is 43%.

With “AD-9556: PCSK9 siRNA (sense rUrGrGrUrGrGrArGrGrUrGrUrArUrCrUrCrCrUdT*dT; antisense rArGrGrArGrArUrArCrArCrCrUrCrCrArCrCrAdT*dT)”, the “Mean percent remaining mRNA transcript at siRNA concentration/in cell type 30 nM/HepG2” value was determined as 46%.

On to “AD-9653: PCSK9 siRNA (sense rGmCmCrArAmCmCmCrGmCmUmCmCrAmCmUrAmCmCdT*dT; antisense rGrGmUrArGrUrGrGrArGrCrGrGrGrUrUrGrGrCdT*dT)”, for which the “Mean percent remaining mRNA transcript at siRNA concentration/in cell type 30 nM/HepG2” value is recorded as 86%. The same measure, in the same setting: the result for “AD-9726: PCSK9 siRNA (sense rGmUmCrGmUrGmCmUrGrGmUmCrAmCmCrGmCmUrGdT*dT; antisense mCrArGrCrGrGrUrGrArCmCrArGmCrArCrGrArCdT*dT)” reads 95%; that for “AD-9751: PCSK9 siRNA (sense mCmUrGrGmUrGrGrArGrGmUrGmUrAmUmCmUmCmCdT*dT; antisense rGrGrArGrAmUrAmCrArCrCrUrCmCrArCmCrArGdT*dT)”, 60%. Take “AD-9578: PCSK9 siRNA (sense rCrArUrUrUrArUrCrUrUrUrUrGrGrGrUrCrUrGdT*dT; antisense rCrArGrArCrCrCrArArArArGrArUrArArArUrGdT*dT)”: the “Mean percent remaining mRNA transcript at siRNA concentration/in cell type 30 nM/HepG2” value is given as 61% and the “Mean percent remaining mRNA transcript at siRNA concentration/in cell type 100 nM/HepG2” value was found to be 49%. As for “AD-9614: PCSK9 siRNA (sense rGrGrCrArArCrUrUrCrCrGrGrGrArCrGrArUrGdT*dT; antisense rCrArUrCrGrUrCrCrCrGrGrArArGrUrUrGrCrCdT*dT)”, the “Mean percent remaining mRNA transcript at siRNA concentration/in cell type 30 nM/HepG2” value is 100%. As for “AD-9323: PCSK9 siRNA (sense rGrGrCrCrUrGrGrArGrUrUrUrArUrUrCrGrGrAdT*dT; antisense rUrCrCrGrArArUrArArArCrUrCrCrArGrGrCrCdT*dT)”, the “Mean percent remaining mRNA transcript at siRNA concentration/in cell type 3 nM/HepG2” value came to 33% and the “Mean percent remaining mRNA transcript at siRNA concentration/in cell type 30 nM/HepG2” value is recorded as 14%. “AD-9523: PCSK9 siRNA (sense rCrArGrCrCrArGrGrArUrUrCrCrGrCrGrCrGrCdT*dT; antisense rGrCrGrCrGrCrGrGrArArUrCrCrUrGrGrCrUrGdT*dT)”: the “Mean percent remaining mRNA transcript at siRNA concentration/in cell type 30 nM/HepG2” value was determined as 55%. “AD-9620: PCSK9 siRNA (sense rCrArGrGrArGrCrCrGrGrGrArCrGrUrCrArGrCdT*dT; antisense rGrCrUrGrArCrGrUrCrCrCrGrGrCrUrCrCrUrGdT*dT)”: the “Mean percent remaining mRNA transcript at siRNA concentration/in cell type 30 nM/HepG2” value is on record as 77% and the “Mean percent remaining mRNA transcript at siRNA concentration/in cell type 100 nM/HepG2” value is reported as 44%. As for “AD-9563: PCSK9 siRNA (sense rCrGrCrUrGrCrCrGrGrCrArArCrUrUrCrCrGrGdT*dT; antisense rCrCrGrGrArArGrUrUrGrCrCrGrGrCrArGrCrGdT*dT)”, the “Mean percent remaining mRNA transcript at siRNA concentration/in cell type 30 nM/HepG2” value was found to be 103%.
